Measured values reported in the supplement of paper PMC10307832.

Legend:
Assay in all cases: relative viability (nuclei count vs DMSO), 5 days (fraction); higher = more cells survive
Palbociclib + Dasatinib = compound: CC(=O)c1c(C)c2cnc(Nc3ccc(N4CCNCC4)cn3)nc2n(C2CCCC2)c1=O [Palbociclib] + Cc1nc(Nc2ncc(C(=O)Nc3c(C)cccc3Cl)s2)cc(N2CCN(CCO)CC2)n1 [Dasatinib] (partner 0.075 µM)
Method in brief: (§1)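 Values are medians from duplicate plates. Each reflects relative viability, defined as the nuclei count of treated wells over that of vehicle wells. Lung cancer cell lines in 1536-well plates were pin-tool dosed one day after seeding with one drug alone or with a fixed anchor-drug dose plus five library-drug doses (not always all listed) in √10 steps, then fixed, stained and imaged at 4× after 5 days.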

Palbociclib + Trametinib = compound: CC(=O)c1c(C)c2cnc(Nc3ccc(N4CCNCC4)cn3)nc2n(C2CCCC2)c1=O [Palbociclib] + CC(=O)Nc1cccc(-n2c(=O)n(C3CC3)c(=O)c3c(Nc4ccc(I)cc4F)n(C)c(=O)c(C)c32)c1 [Trametinib] (partner 0.02 µM)
Method in brief: as §1

Palbociclib + AZD7762 = compound: CC(=O)c1c(C)c2cnc(Nc3ccc(N4CCNCC4)cn3)nc2n(C2CCCC2)c1=O [Palbociclib] + NC(=O)Nc1cc(-c2cccc(F)c2)sc1C(=O)N[C@H]1CCCNC1 [AZD7762] (partner 0.2 µM)
Method in brief: as §1

Palbociclib + Bortezomib = compound: CC(=O)c1c(C)c2cnc(Nc3ccc(N4CCNCC4)cn3)nc2n(C2CCCC2)c1=O [Palbociclib] + CC(C)C[C@H](NC(=O)[C@H](Cc1ccccc1)NC(=O)c1cnccn1)B(O)O [Bortezomib] (partner 0.002 µM)
Method in brief: as §1

Row | Cell Line | relative viability (Palbociclib + Dasatinib; first compound 0.01 µM) | relative viability (Palbociclib + Dasatinib; first compound 0.03162 µM) | relative viability (Palbociclib + Dasatinib; first compound 0.1 µM) | relative viability (Palbociclib + Dasatinib; first compound 0.3162 µM) | relative viability (Palbociclib + Dasatinib; first compound 1 µM) | relative viability (Palbociclib + Trametinib; first compound 0.01 µM) | relative viability (Palbociclib + Trametinib; first compound 0.03162 µM) | relative viability (Palbociclib + Trametinib; first compound 0.1 µM) | relative viability (Palbociclib + Trametinib; first compound 0.3162 µM) | relative viability (Palbociclib + Trametinib; first compound 1 µM) | relative viability (Palbociclib + AZD7762; first compound 0.01 µM) | relative viability (Palbociclib + AZD7762; first compound 0.03162 µM) | relative viability (Palbociclib + AZD7762; first compound 0.1 µM) | relative viability (Palbociclib + AZD7762; first compound 0.3162 µM) | relative viability (Palbociclib + AZD7762; first compound 1 µM) | relative viability (Palbociclib + Bortezomib; first compound 0.01 µM) | relative viability (Palbociclib + Bortezomib; first compound 0.03162 µM) | relative viability (Palbociclib + Bortezomib; first compound 0.1 µM) | relative viability (Palbociclib + Bortezomib; first compound 0.3162 µM) | relative viability (Palbociclib + Bortezomib; first compound 1 µM)
1 | 201T | 0.54 | 0.494 | 0.579 | 0.388 | 0.324 | 0.733 | 0.684 | 0.71 | 0.692 | 0.609 | 0.573 | 0.475 | 0.905 | 0.751 | 0.633 | 1.16 | 0.954 | 1.04 | 0.946 | 0.709
2 | A-427 | 0.672 | 0.607 | 0.561 | 0.523 | 0.485 | 0.846 | 0.703 | 0.628 | 0.613 | 0.587 | 0.778 | 0.653 | 0.472 | 0.469 | 0.43 | 0.933 | 0.877 | 0.827 | 0.832 | 0.546
3 | ABC-1 | 0.546 | 0.537 | 0.493 | 0.457 | 0.377 |  |  |  |  |  | 0.931 | 0.614 | 0.727 | 0.957 | 0.752 | 0.323 | 0.32 | 0.232 | 0.292 | 0.394
4 | BEN | 0.39 | 0.324 | 0.229 | 0.235 | 0.208 | 1.05 | 0.949 | 0.553 | 0.873 | 0.598 | 0.826 | 0.604 | 0.583 | 0.567 | 0.388 | 0.94 | 0.728 | 0.849 | 0.674 | 0.353
5 | CAL-12T | 0.486 | 0.383 | 0.248 | 0.273 | 0.22 | 0.437 | 0.316 | 0.207 | 0.204 | 0.166 | 0.646 | 0.569 | 0.516 | 0.51 | 0.409 | 1.04 |  |  | 0.674 | 0.405
6 | COR-L23 | 0.575 | 0.431 | 0.241 | 0.334 | 0.2 | 0.666 | 0.521 | 0.362 | 0.434 | 0.209 |  |  |  |  |  | 0.952 | 0.795 | 0.831 | 0.721 | 0.344
7 | COR-L 105 | 0.339 | 0.312 | 0.274 | 0.326 | 0.253 | 0.477 | 0.435 | 0.36 | 0.407 | 0.389 |  |  |  |  |  | 0.759 | 0.435 | 0.486 | 0.504 | 0.363
8 | Calu-6 |  |  |  |  |  |  |  |  |  |  |  |  |  |  |  | 0.926 | 0.95 | 0.727 | 0.89 | 0.412
9 | ChaGo-K-1 | 0.545 | 0.539 | 0.615 | 0.594 | 0.593 | 0.852 |  | 0.874 | 0.939 | 0.954 | 0.885 |  | 0.867 | 0.905 | 0.861 | 1.11 | 0.828 | 1.02 | 1.14 | 1.11
10 | EBC-1 |  |  |  |  |  |  |  |  |  |  |  |  |  |  |  | 0.468 | 0.445 | 0.353 | 0.281 | 0.193
11 | EKVX | 0.467 | 0.444 | 0.502 | 0.455 | 0.372 | 0.3 |  | 0.247 | 0.251 | 0.244 | 0.7 |  | 0.673 | 0.558 | 0.38 | 1.12 | 0.916 | 1.04 | 0.989 | 0.461
12 | EMC-BAC-2 | 0.3 | 0.258 | 0.302 | 0.32 | 0.256 | 0.815 | 0.797 | 0.718 | 0.694 | 0.512 | 1.13 | 0.935 | 0.955 | 1.02 | 0.713 | 1.09 | 0.812 | 0.905 | 0.785 | 0.665
13 | EPLC-272H | 0.328 |  | 0.345 | 0.249 | 0.198 | 0.286 |  | 0.268 | 0.244 | 0.25 | 0.306 |  | 0.383 | 0.251 | 0.274 | 0.836 |  | 0.792 | 0.883 | 0.512
14 | HCC-44 |  |  |  |  |  | 1.07 | 1.1 | 1.02 | 0.987 | 1.1 | 1.03 | 0.98 | 0.97 | 0.96 | 1.01 | 0.824 | 0.804 | 0.844 | 0.836 | 0.911
15 | IA-LM |  |  |  |  |  |  |  |  |  |  |  |  |  |  |  | 0.606 | 0.49 | 0.469 | 0.348 | 0.134
16 | LK-2 | 0.356 |  | 0.305 | 0.301 | 0.321 | 0.788 | 0.676 | 0.752 | 0.633 | 0.708 | 0.472 | 0.297 | 0.374 | 0.338 | 0.303 |  |  |  |  | 
17 | NCI-H358 | 0.156 | 0.179 | 0.101 | 0.0972 | 0.0795 | 0.124 | 0.133 | 0.106 | 0.12 | 0.106 | 0.535 | 0.417 | 0.347 | 0.29 | 0.213 |  |  |  |  | 
